In patent US10239871B2, “Compounds and methods for regulating integrins” (ADHAERE PHARMACEUTICALS, INC., priority 2012, dated 2019):

Columns and labels:
CD11b/CD18 [1] = target: T1, CD11b/CD18 (Homo sapiens, UniProt P11215); experiment: Flow chamber assay (adhesion under wall shear stress); type: cell-based; set-up: expressed in transfected cells; host or cells: 293T cells, transient transfection; settings: 25 μM LA1, unlike Mn2+
Method: The flow chamber assay was performed as described in literature (Chen, J. F., Salas, A. & Springer, T. A. Bistable regulation of integrin adhesiveness by a bipolar metal ion cluster. Nat. Struct. Biol. 10, 995-1001 (2003)). A polystyrene Petri dish was coated with a 5 mm diameter, 20 μL spot of 20 μg/mL purified h-ICAM-1/Fc (R&D) or 20 μg/mL Fibrinogen in coating buffer (PBS, 10 mM NaHCO3, pH 9.0) for 1 hour at 37° C., followed by 2% BSA in coating buffer for 1 hour at 37° C. to block nonspecific binding sites. Transient transfected 293T cells were washed twice with wash buffer (20 mM Hepes, 150 mM NaCl, pH 7.4, 5 mM EDTA/0.5% BSA), subsequently once with HBS containing 1 mM Ca^2+ and 1 mM Mg^2+ (HBS^++), and finally resuspended at the concentration of 5×10^6/mL in HBS^++ ([…], 0.5% BSA) and kept on ice. Cells were incubated in 2% DMSO with or without 25 μM LA1 at 37° C. for 30 minutes. And subsequently infused in the flow chamber using a Harvard apparatus programmable syringe pump. Cells were allowed to settle down for 5 minutes, and accumulate for 30 seconds at 0.3 dyn/cm^2 and 10 seconds at 0.4 dyn/cm^2. […] The number of cells remaining abound at the end of each 10-sec interval were determined. Rolling velocity at each shear stress was calculated from the average distance traveled by rolling cells in 3 seconds. […]

CD11b/CD18 [2] = target: T1, CD11b/CD18; experiment: Immunofluorescence microscopy of CD11b/CD18 clustering on K562 WT cells; type: cell-based; set-up: K562 cells stably transfected with plasmid encoding wild-type integrin CD11b/CD18; expressed in transfected cells
Method: To visualize changes upon ligand binding, fibrinogen (50 μg/mL) was also added to the cell suspension media in a second set of incubations. The cells were fixed in suspension and incubated with mAb 184, which is specific for CD11b/CD18, followed by Alexa Fluor 488-conjugated goat antibody against mouse Ig (Sigma). Fluorescence images were recorded with a Leica DMI16000 deconvolution microscope using an HCX APO 40×/0.75 DRY objective with a DCF360FX camera and with Leica LAS-AF software. A 3-dimensional representation of CD11b/CD18 fluorescence intensity and the analysis of the number of CD11b/CD18 clusters per cell was performed using ImageJ software as described. Clustering determination was carried out by counting individual fluorescent peaks that were projected from the basal to the apical side of the cell and were at least 50% above the base line levels. The images presented are representative of at least 20 cells analyzed for each condition from at least three independent experiments.
Therefore, to investigate, a combination of confocal microscopy (to study clustering) and western blotting assays (to study intracellular signaling) using K562 WT cells were used. First, CD11b/CD18 cell-surface distribution and macro clustering was studied under various conditions using confocal microscopy. K562 WT cells in suspension were incubated with various agonists, fixed with paraformaldehyde and the surface expressed CD11b/CD18 was fluorescently stained with anti-CD11b/CD18 mAb 1B4. […] The fluorescence images shown are representative of three independent experiments. […] Also shown below each image is a 3D representation of CD11b fluorescence intensity for selected cells, analyzed in ImageJ In FIG. 5B, data shown are mean±SEM from >40 cells per condition and from >3 independent experiments for each condition. ***p<0.0001, ns=not significant.

SMILES: O=C(O)c1ccc(-c2ccc(/C=C3\SC(=S)N(Cc4ccccc4)C3=O)o2)cc1 [LA1]
- adhesive behavior of CD11b/CD18 transfectants under wall shear stress (conformation induced) (CD11b/CD18 [1]): induces priming of CD11b/CD18 and converts it into intermediate conformation
- CD11b/CD18 macro clustering on cell surface (CD11b/CD18 [2]; absence of ligand fibrinogen, 45 minutes at 37° C.): did not induce any significant CD11b/CD18 macro clustering
- CD11b/CD18 macro clustering on cell surface (CD11b/CD18 [2]; presence of fibrinogen 50 μg/mL): did so in the presence of fibrinogen
